Molecules are shown by their SMILES.

In general, melting point refers to the temperature, or range, at which the solid turns liquid. `O=S(=O)(CF)c1ccccc1` registered a melting point of 53 °C. Under `Cc1cc2c(C)ccc(C)c2cc1C` stands 64 °C; under `COc1ccc(C#N)c(OC)c1OC`, 56 °C; under `Cc1ccccc1C=C1C(=O)OC(C)(C)OC1=O`, 142 °C. Under `CC1=C(C(=O)OCC(C)C)C(c2ccccc2)NC(=S)N1` (centres undefined) stands 153 °C; under `CCCC(=O)Nc1ccc(OCC(O)CNC(C)C)c(C(C)=O)c1` (centres undefined), 119 °C; under `CN1CCN(c2ccc(N)cc2)CC1`, 92 °C. `O=C(O)C(Cc1ccccc1)Cc1ccccc1` showed a melting point of 90 °C.

In the case of `COC(=O)c1cc(OC)c(O)c(OC)c1`, the melting point was determined as 106 °C.

Regarding `COc1ccc2nc(C)ccc2c1`, the melting point was determined as 64 °C. Under `COc1ccc(NN=c2c(C)nc3ccccc3[nH]c2=O)cc1` stands 196 °C; under `Cn1c(=O)n(-c2ccccc2)c(=O)c2c3c(sc21)CCCC3`, 249 to 251 °C; under `CC(=O)C(Cl)C(C)=O`, -15 °C. `Cc1cccc(NC(=O)c2ccccc2C(=O)O)c1`: the melting point was determined as 150 °C. For `Cc1ccc(-c2ccc(/C=C/C(=O)c3ccc(C)o3)o2)cc1` the value was 143 °C; for `CC1CC(=O)Nc2ccccc2N1` (centres undefined), 180 to 183 °C; for `NC(=O)NN=CC[N+](=O)[O-]`, 360 °C.

Compound `CC(=O)Oc1nn(-c2ccc(Br)cc2)cc1Br` showed a melting point of 77 °C. For `N#CSCC(=O)c1ccc(Cl)cc1` the value was 135 to 136 °C.

For the compound `C[Si](C)(C)NC(=O)N[Si](C)(C)C`, the melting point was determined as 232 °C. Under `C#CC(C1COC(C)(C)O1)N(O)Cc1ccccc1` (centres undefined) stands 115 °C; under `OCCN1CCNC1=S`, 136 to 138 °C. For `O=C(O)c1ccc(F)cc1C(F)(F)F` the value was 123 °C; for `CC(C)(C)[N+]([O-])=Cc1ccccc1`, 71 to 75 °C.

`O=C(CBr)c1ccc(C(=O)CBr)cc1` yielded a melting point of 173 °C. For the compound `CC(=O)c1c(C(C)C)cc(C(C)C)cc1C(C)C`, the melting point came to 87 °C. For `OC(c1ccc(F)cc1)C(O)c1ccc(F)cc1` (centres undefined) the value was 153 °C; for `CC(=O)c1cccc(S(=O)(=O)Cl)c1`, 43 °C. For `CCOC(=O)C(Br)C(C)Br` (centres undefined) the value was 58.5 °C.

With `Cc1c(C)c2ccccc2c2ccccc12`, the melting point was determined as 144 °C. Consider `N#Cc1ccc2c(c1)[N+]([O-])=C(c1ccc(C3=[N+]([O-])c4cc(C#N)ccc4C3=O)cc1)C2=O`, for which the melting point stood at 360 °C.

Compound `CC(=O)c1c(O)c(C)c(O)c2c1OC1=CC(=O)C(C(C)=O)C(=O)C12C` (centres undefined) showed a melting point of 204 °C.

`COc1ccc(-n2ncc(C(=O)O)c2C)cc1` came in with a melting point of 212 to 213 °C.

Consider `COc1ccc(/C=N/n2c(S)nnc2C(F)(F)F)cc1`, for which the melting point was 188 °C.

Turning to `CCOC(=O)N1C(=O)c2ccccc2C1=O`, the melting point is 91 °C.

In turn, `O=C(NC(=S)Nc1ccccn1)c1ccccc1` yielded a melting point of 144 to 147 °C.

On to `COc1ccc(C(N)=S)cc1[N+](=O)[O-]`, for which the melting point is 191 to 192 °C.

Take `Cn1c(=O)c(C2=NNC(=O)C2=NNc2ccc(I)cc2)c(O)c2ccccc21`: the melting point worked out at 262 °C.

As for `CCc1cccc(Cl)c1`, the melting point is -55 °C. For `CC(C)(C)C(=O)OCC(=O)C1(O)CCC2C3CCC4=CC(=O)C=CC4(C)C3C(O)CC21C` (centres undefined) the value was 233 °C. Under `CC(C)NC(=O)N1CC(=O)N(c2cc(Cl)cc(Cl)c2)C1=O` stands 136 °C.

Consider `CC(C)(C)OC(=O)C(C)(C)Sc1ccc(Cl)cc1`, for which the melting point is 44 to 46 °C.

Take `OCC(Br)C(Br)CO` (centres undefined): the melting point is 85 °C. `COc1ccc(C(C=O)C=O)cc1` registered a melting point of 178 to 181 °C. For `N[C@@H](Cc1ccc(O)c([N+](=O)[O-])c1)C(=O)O` the value was 233 to 235 °C; for `COc1cccc(OCc2ccccc2)c1C#N`, 70 to 72 °C. `COC1OC(CNC(=O)N(CCCl)N=O)C(O)C(O)C1O` (centres undefined) yielded a melting point of 111 °C. Under `CCC1=CN(S(=O)(=O)c2ccc(C)cc2)C[C@@H]1CCc1cccc(C(=O)OC)c1` stands 67.5 °C; under `c1ccc(P(CCP(c2ccccc2)c2ccccc2)c2ccccc2)cc1`, 141 °C; under `C#CC(O)CCC` (centres undefined), -80 °C. Under `CC(=O)OCCN(CCC#N)c1ccc(N=Nc2nc3ccc([N+](=O)[O-])cc3s2)cc1` stands 167 °C; under `O=C(O)c1cc2cccc([N+](=O)[O-])c2[nH]1`, 265 °C; under `O=C(O)C(Cc1ccccc1)C(=O)O`, 121 °C. Under `BrCc1cccc(-c2cccs2)c1` stands 57 °C; under `Oc1ccc(C2=Cc3ccccc3C(c3ccccc3)O2)cc1` (centres undefined), 121 °C; under `COc1cc2c(cc1OC)C(c1ccc(Cl)cc1)N(C(C)=O)CC2` (centres undefined), 130 to 132 °C. For `CCOc1cccc(NC(C)=O)c1`, the melting point is 97 °C. Under `COc1ccc(C(C)=O)cc1[N+](=O)[O-]` stands 98 °C; under `CCOC(=O)C1=C(N)n2nc(C(F)(F)F)nc2NC1c1ccc(Cl)cc1` (centres undefined), 198 °C.

Compound `N#CCc1ccccc1C#N` gave a melting point of 73 to 79 °C.

On to `CCCC(=NOCC)C1=C(O)CC(C2CCCSC2)CC1=O` (centres undefined), for which the melting point turned out to be 37.1 °C.

As for `CCCCc1cccc2ccccc12`, the melting point is -19.8 °C. Turning to `CCOC(=O)C12C(c3cc(Cl)ccc3OP1(=O)OCC)C1(C(=O)OCC)C2c2cc(Cl)ccc2OP1(=O)OCC` (centres undefined), the melting point fell in the range of 256 to 258 °C. Under `Clc1ncnc2scc(-c3cccs3)c12` stands 110 to 112 °C. For `CNc1ncnc(Cl)c1[N+](=O)[O-]`, the melting point lay within 134 to 139 °C.

In the case of `OC1Cc2cccc3cccc1c23` (centres undefined), the melting point was found to be 148 °C.

The compound `Nc1cc(Cl)cnc1Cl` showed a melting point of 124 to 125 °C. For `O=S(=O)(O)NC1CCCCC1` the value was 170 °C; for `COc1cc(C=CC(=O)O)cc(OC)c1OC`, 127 °C; for `CCOC(=O)c1csc(-c2ccc(F)cc2F)n1`, 50 to 52 °C. As to `O=C1CC(=O)CC(c2ccc(F)cc2)C1`, the melting point is 174 to 178 °C. For the compound `Cc1noc(-c2ccc(CO)cc2)n1`, the melting point fell in the range of 102 to 104 °C. For `CSc1nc(N)c(C(C)=O)s1` the value was 159 to 160 °C; for `O=C1OC(=O)[C@H]2[C@@H]1[C@@H]1C3C=CC([C@H]21)[C@H]1C(=O)OC(=O)[C@@H]31`, 355 to 357 °C. Compound `CCCCCCCCc1ccc(N)cc1` displayed a melting point of 20 °C. For `CC1OC(Oc2c[nH]c3ccc(Br)c(Cl)c23)C(O)C(O)C1O` (centres undefined) the value was 213 to 217 °C; for `CCOC(=O)Nc1ccc2cc3ccc(N)c(CO)c3nc2c1`, 135 °C. Under `CCC(C)(CC)c1cc(NC(=O)c2c(OC)cccc2OC)on1` stands 178 °C; under `CC1(C)C(=S)NC(c2ccccc2)N1O` (centres undefined), 193 to 195 °C. Under `CCOC(=O)c1c(=S)ncn2c1[nH]c1ccccc12` stands 194 to 198 °C. The compound `CCOC(=O)/C(C#N)=C(/SC)N(C)C` returned a melting point of 90 to 94 °C. `NNc1nncc2ccccc12` came in with a melting point of 172 °C. Under `Cc1noc(C)c1N` stands 52 to 54 °C; under `N#CCS(=O)(=O)c1ccc(F)cc1`, 87 to 89 °C. Compound `CC(C(=O)O)C(C)C(=O)O` (centres undefined) registered a melting point of 120 °C. In the case of `FC(F)(F)c1cc(CCl)cc(C(F)(F)F)c1`, the melting point amounted to 31 °C. Under `CC1(C)OC2C(=O)OC(CO)C2O1` (centres undefined) stands 136 to 140 °C; under `Fc1c(F)c(F)c(P(c2ccccc2)c2ccccc2)c(F)c1F`, 71 °C; under `C=Cc1ccc(C=C)cc1`, 31 °C. Under `CC(=O)C(=O)Nc1ccccc1` stands 100 °C. For `CC(=O)OCC(=O)C1CCC2C3CC=C4CC(O)CCC4(C)C3CCC12C` (centres undefined) the value was 184 °C; for `O=S(=O)(Cl)c1c(Cl)nc2sccn12`, 137 to 139 °C; for `COC(=O)c1cnc(SCC(=O)NC(=O)Nc2ccc(Cl)cc2)n1C`, 208 to 209 °C. As to `COc1cc(N)ncn1`, the melting point is 100 °C. In turn, `Nc1nn2c(C(F)(F)F)cc(=O)[nH]c2c1/N=N/c1ccc(S(=O)(=O)O)cc1` returned a melting point of 292 °C. Under `CC1CC(=O)C(=O)C1C` (centres undefined) stands 64 to 69 °C. As for `COc1ccc(C(F)(F)F)cc1N`, the melting point turned out to be 58 °C.

In the case of `CC(=O)[C@H]1CC[C@H]2[C@@H]3CC=C4C[C@@H](OC(=O)CCC(=O)O)CC[C@]4(C)[C@H]3CC[C@]12C`, the melting point came out at 180 °C.

Take `O=C(O)c1cccc(S(=O)(=O)Cl)c1`: the melting point amounted to 135 °C. For `CN(C)c1ccc(C=Cc2ccc3ccccc3n2)cc1` the value was 184 °C; for `O=C(c1ccccc1O)c1ccccc1O`, 59.5 °C; for `Cc1ccc(-c2csc(/C(C#N)=N\Nc3ccc(Cl)cc3)n2)cc1`, 172 °C.

For `Cc1cccc(C(=O)Cl)c1`, the melting point is -23 °C. With `CC(=O)c1cc(Cl)c(C)cc1O`, the melting point lay within 70 to 73 °C. For `Fc1ccc(C(=S)N2CCCCC2)cc1` the value was 77 °C. For `c1ccc2c(c1)Sc1ccccc1N2CC1CN2CCC1CC2` (centres undefined) the value was 130 °C; for `CCC1C2CC3C4N(C)c5ccccc5C45CC(C2C5O)N3C1O` (centres undefined), 159 °C.

Compound `Cc1nc(-c2ccc(CBr)cc2)no1` showed a melting point of 103 to 104 °C. For `Nc1n[nH]c(-c2ccccc2)c1Br` the value was 118 to 120 °C.

These data come from a melting point compilation (Tetko et al.).
